How the values were obtained:
AKT1 = AKT1 (Homo sapiens (Human), UniProt P31749); experiment: KINOMEscan scanMAX; format: binding; settings: 2000 nM; read-out: Percent Control
[1] = target: RSK3(Kin.Dom.2-C-terminal) (RPS6KA2) (Homo sapiens (Human), UniProt Q15349); experiment: KINOMEscan scanMAX; format: binding; settings: 2000 nM; read-out: Percent Control
EGFR = EGFR (Homo sapiens (Human), UniProt P00533); experiment: KINOMEscan scanMAX; format: binding; settings: 2000 nM; read-out: Percent Control
CAMK2A = CAMK2A (Homo sapiens (Human), UniProt Q9UQM7); experiment: KINOMEscan scanMAX; format: binding; settings: 2000 nM; read-out: Percent Control
ALK = ALK (Homo sapiens (Human), UniProt Q9UM73); experiment: KINOMEscan scanMAX; format: binding; settings: 2000 nM; read-out: Percent Control
ULK1 = ULK1 (Homo sapiens (Human), UniProt O75385); experiment: KINOMEscan scanMAX; format: binding; settings: 2000 nM; read-out: Percent Control
CDK8 = CDK8 (Homo sapiens (Human), UniProt P49336); experiment: DiscoverX Kd assay
[2] = target: JAK2(JH1domain-catalytic) (Homo sapiens (Human), UniProt O60674); experiment: KINOMEscan scanMAX; format: binding; settings: 2000 nM; read-out: Percent Control
PCTK3 (CDK18) = PCTK3 (CDK18) (Homo sapiens (Human), UniProt Q07002); experiment: KINOMEscan scanMAX; format: binding; settings: 2000 nM; read-out: Percent Control
LYN = LYN (Homo sapiens (Human), UniProt P07948); experiment: KINOMEscan scanMAX; format: binding; settings: 2000 nM; read-out: Percent Control
IRAK4 = IRAK4 (Homo sapiens (Human), UniProt Q9NWZ3); experiment: KINOMEscan scanMAX; format: binding; settings: 2000 nM; read-out: Percent Control
Sequence of IRAK4 (Q9NWZ3 whole entry): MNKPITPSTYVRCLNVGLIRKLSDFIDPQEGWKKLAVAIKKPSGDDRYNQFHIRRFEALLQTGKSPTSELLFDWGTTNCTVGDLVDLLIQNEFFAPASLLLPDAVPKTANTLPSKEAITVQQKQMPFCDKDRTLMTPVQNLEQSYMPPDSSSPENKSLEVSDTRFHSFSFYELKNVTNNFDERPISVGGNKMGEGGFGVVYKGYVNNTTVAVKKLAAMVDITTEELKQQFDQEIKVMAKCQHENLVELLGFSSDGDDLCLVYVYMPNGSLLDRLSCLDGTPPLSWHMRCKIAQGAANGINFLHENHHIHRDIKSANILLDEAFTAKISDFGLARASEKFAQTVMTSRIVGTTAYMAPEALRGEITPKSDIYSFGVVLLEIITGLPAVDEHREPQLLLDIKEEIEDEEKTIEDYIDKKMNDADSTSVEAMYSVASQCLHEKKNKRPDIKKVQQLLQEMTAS

PIK3CA(H1047L) = PIK3CA(H1047L) (Homo sapiens (Human), UniProt P42336, H1047L); experiment: KINOMEscan scanMAX; format: binding; settings: 2000 nM; read-out: Percent Control
MET(Y1235D) = MET(Y1235D) (Homo sapiens (Human), UniProt P08581, Y1235D); experiment: KINOMEscan scanMAX; format: binding; settings: 2000 nM; read-out: Percent Control
BMPR2 = BMPR2 (Homo sapiens (Human), UniProt Q13873); experiment: KINOMEscan scanMAX; format: binding; settings: 2000 nM; read-out: Percent Control
CSNK2A2 = CSNK2A2 (Homo sapiens (Human), UniProt P19784); experiment: KINOMEscan scanMAX; format: binding; settings: 2000 nM; read-out: Percent Control
Sequence of CSNK2A2 (P19784 whole entry): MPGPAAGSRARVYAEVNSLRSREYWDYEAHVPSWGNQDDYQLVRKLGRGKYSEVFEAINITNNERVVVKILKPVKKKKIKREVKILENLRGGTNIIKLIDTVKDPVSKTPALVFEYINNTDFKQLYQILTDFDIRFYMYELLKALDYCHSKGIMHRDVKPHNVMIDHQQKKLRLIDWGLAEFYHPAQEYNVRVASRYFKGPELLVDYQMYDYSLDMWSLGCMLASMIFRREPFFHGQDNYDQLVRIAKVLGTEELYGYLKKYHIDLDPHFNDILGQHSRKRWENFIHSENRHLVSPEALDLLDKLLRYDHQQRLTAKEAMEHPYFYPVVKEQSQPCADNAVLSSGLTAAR

CSK = CSK (Homo sapiens (Human), UniProt P41240); experiment: KINOMEscan scanMAX; format: binding; settings: 2000 nM; read-out: Percent Control
CDK4-cyclinD3 = CDK4-cyclinD3 (Homo sapiens (Human), UniProt P11802); experiment: KINOMEscan scanMAX; format: binding; settings: 2000 nM; read-out: Percent Control
Sequence of CDK4-cyclinD3 (P11802 whole entry): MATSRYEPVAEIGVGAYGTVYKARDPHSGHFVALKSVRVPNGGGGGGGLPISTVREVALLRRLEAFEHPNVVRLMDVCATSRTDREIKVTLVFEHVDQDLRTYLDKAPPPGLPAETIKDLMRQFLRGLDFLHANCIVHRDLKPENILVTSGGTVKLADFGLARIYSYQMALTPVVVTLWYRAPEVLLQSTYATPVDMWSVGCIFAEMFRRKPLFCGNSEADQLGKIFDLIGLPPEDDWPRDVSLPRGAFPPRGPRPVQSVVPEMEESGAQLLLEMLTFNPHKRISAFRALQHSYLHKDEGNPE
Sequence of CDK4-cyclinD3 (P30281 whole entry partner): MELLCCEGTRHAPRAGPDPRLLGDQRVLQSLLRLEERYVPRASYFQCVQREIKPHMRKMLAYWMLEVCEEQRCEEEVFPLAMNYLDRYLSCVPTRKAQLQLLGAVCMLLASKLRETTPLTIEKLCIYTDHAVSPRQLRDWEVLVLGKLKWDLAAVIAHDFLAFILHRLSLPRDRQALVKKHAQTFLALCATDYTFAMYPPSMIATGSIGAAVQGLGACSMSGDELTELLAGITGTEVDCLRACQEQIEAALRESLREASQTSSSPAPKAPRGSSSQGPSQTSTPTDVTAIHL

VRK2 = VRK2 (Homo sapiens (Human), UniProt Q86Y07); experiment: KINOMEscan scanMAX; format: binding; settings: 2000 nM; read-out: Percent Control
GAK = GAK (Homo sapiens (Human), UniProt O14976); experiment: KINOMEscan scanMAX; format: binding; settings: 2000 nM; read-out: Percent Control
Sequence of GAK (O14976 whole entry): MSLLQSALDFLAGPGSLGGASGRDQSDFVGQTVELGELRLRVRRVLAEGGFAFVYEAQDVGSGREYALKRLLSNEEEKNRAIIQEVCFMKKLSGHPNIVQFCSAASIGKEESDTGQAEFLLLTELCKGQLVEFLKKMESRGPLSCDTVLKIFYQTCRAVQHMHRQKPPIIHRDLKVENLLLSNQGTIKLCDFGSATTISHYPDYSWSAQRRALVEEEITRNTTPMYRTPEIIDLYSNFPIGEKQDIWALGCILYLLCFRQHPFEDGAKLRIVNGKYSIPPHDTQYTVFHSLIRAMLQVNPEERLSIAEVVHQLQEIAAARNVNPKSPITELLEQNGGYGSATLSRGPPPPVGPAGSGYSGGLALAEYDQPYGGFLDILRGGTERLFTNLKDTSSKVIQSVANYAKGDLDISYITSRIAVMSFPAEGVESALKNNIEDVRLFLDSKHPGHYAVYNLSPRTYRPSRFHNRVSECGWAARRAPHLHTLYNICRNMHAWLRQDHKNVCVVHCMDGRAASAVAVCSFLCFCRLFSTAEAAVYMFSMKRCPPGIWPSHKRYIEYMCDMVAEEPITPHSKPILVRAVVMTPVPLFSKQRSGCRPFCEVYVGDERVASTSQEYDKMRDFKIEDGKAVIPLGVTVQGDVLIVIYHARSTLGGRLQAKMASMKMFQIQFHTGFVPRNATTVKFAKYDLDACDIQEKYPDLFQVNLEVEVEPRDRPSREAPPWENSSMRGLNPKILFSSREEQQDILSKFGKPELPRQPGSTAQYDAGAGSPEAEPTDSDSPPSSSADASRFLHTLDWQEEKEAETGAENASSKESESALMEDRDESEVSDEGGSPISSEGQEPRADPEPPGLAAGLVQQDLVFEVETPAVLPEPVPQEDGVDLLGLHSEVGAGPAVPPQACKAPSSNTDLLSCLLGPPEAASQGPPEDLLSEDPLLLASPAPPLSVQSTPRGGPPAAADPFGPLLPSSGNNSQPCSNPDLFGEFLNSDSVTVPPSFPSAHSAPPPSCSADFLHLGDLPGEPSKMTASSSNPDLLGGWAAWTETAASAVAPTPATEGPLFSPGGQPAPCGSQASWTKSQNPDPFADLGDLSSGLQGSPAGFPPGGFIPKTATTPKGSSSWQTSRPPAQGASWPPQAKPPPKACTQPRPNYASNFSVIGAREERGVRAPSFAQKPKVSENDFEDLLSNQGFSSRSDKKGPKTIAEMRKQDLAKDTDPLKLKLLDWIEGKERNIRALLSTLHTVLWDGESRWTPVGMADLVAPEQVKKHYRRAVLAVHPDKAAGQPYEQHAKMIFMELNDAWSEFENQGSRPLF

SRC = SRC (Homo sapiens (Human), UniProt P12931); experiment: KINOMEscan scanMAX; format: binding; settings: 2000 nM; read-out: Percent Control
Sequence of SRC (P12931 whole entry, looked up): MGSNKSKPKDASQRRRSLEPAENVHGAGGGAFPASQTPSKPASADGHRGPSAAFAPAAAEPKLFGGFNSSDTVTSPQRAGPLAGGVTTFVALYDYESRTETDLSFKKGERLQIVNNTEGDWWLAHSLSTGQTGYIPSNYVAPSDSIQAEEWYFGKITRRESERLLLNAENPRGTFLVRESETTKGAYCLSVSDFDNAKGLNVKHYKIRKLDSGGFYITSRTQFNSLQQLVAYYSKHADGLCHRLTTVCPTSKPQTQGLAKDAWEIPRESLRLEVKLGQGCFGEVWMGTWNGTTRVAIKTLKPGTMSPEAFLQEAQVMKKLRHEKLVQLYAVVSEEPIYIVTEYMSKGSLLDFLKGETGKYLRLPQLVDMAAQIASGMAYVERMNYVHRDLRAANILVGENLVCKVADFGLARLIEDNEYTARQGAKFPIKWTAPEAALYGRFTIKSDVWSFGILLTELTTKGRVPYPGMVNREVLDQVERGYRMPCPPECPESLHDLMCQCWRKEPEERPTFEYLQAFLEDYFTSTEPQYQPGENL

JNK2 (MAPK9) = JNK2 (MAPK9) (Homo sapiens (Human), UniProt P45984); experiment: KINOMEscan scanMAX; format: binding; settings: 2000 nM; read-out: Percent Control
TNK2 = TNK2 (Homo sapiens (Human), UniProt Q07912); experiment: KINOMEscan scanMAX; format: binding; settings: 2000 nM; read-out: Percent Control
ADCK4 = ADCK4 (Homo sapiens (Human), UniProt Q96D53); experiment: KINOMEscan scanMAX; format: binding; settings: 2000 nM; read-out: Percent Control
CDK8/19 = experiment: Wash-off assay, MYC and JUN expression in 293 cells (QPCR); format: cell-based, human; settings: 1 μM for 2 hours, then wash-off; MYC and JUN
Protocol: RNA was extracted at different time points after wash-off (up to 24 hrs) and expression of MYC and JUN genes that are CDK8/19-dependent in these cells was measured by QPCR. […] In contrast, after Senexin C treatment and wash-off, the effects of Senexin C were largely retained for at least 6 hrs after wash-off.

MYLK2 = MYLK2 (Homo sapiens (Human), UniProt Q9H1R3); experiment: KINOMEscan scanMAX; format: binding; settings: 2000 nM; read-out: Percent Control
RIPK5 (DSTYK) = RIPK5 (DSTYK) (Homo sapiens (Human), UniProt Q6XUX3); experiment: KINOMEscan scanMAX; format: binding; settings: 2000 nM; read-out: Percent Control
RIPK1 = RIPK1 (Homo sapiens (Human), UniProt Q13546); experiment: KINOMEscan scanMAX; format: binding; settings: 2000 nM; read-out: Percent Control
CDK19 = CDK19 (Homo sapiens (Human), UniProt Q9BWU1); experiment: DiscoverX Kd assay
ULK2 = ULK2 (Homo sapiens (Human), UniProt Q8IYT8); experiment: KINOMEscan scanMAX; format: binding; settings: 2000 nM; read-out: Percent Control
IRAK3 = IRAK3 (Homo sapiens (Human), UniProt Q9Y616); experiment: KINOMEscan scanMAX; format: binding; settings: 2000 nM; read-out: Percent Control
LTK = LTK (Homo sapiens (Human), UniProt P29376); experiment: KINOMEscan scanMAX; format: binding; settings: 2000 nM; read-out: Percent Control
MLCK (MYLK3) = MLCK (MYLK3) (Homo sapiens (Human), UniProt Q32MK0); experiment: KINOMEscan scanMAX; format: binding; settings: 2000 nM; read-out: Percent Control
NEK5 = NEK5 (Homo sapiens (Human), UniProt Q6P3R8); experiment: KINOMEscan scanMAX; format: binding; settings: 2000 nM; read-out: Percent Control
Sequence of NEK5 (Q6P3R8 whole entry): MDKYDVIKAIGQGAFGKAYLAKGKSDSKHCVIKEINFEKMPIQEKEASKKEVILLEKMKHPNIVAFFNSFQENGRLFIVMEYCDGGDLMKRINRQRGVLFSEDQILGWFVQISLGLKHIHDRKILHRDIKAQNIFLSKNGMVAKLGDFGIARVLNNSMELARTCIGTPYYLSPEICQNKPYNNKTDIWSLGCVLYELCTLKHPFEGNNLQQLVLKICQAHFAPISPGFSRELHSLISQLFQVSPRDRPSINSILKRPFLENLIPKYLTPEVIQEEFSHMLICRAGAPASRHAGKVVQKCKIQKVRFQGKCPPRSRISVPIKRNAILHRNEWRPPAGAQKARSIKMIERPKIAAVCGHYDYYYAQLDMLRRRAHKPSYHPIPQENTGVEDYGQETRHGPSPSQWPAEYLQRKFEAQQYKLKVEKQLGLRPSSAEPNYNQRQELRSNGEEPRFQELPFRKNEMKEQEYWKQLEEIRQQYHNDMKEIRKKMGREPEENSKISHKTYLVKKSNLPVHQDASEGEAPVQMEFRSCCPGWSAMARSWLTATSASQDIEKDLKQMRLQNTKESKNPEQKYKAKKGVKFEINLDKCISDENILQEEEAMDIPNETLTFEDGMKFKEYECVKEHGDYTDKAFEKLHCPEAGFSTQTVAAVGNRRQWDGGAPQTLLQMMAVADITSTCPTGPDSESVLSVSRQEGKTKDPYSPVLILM

BTK = BTK (Homo sapiens (Human), UniProt Q06187); experiment: KINOMEscan scanMAX; format: binding; settings: 2000 nM; read-out: Percent Control
MEK6 (MAP2K6) = MEK6 (MAP2K6) (Homo sapiens (Human), UniProt P52564); experiment: KINOMEscan scanMAX; format: binding; settings: 2000 nM; read-out: Percent Control
BMPR1B = BMPR1B (Homo sapiens (Human), UniProt O00238); experiment: KINOMEscan scanMAX; format: binding; settings: 2000 nM; read-out: Percent Control
PRKCQ = PRKCQ (Homo sapiens (Human), UniProt Q04759); experiment: KINOMEscan scanMAX; format: binding; settings: 2000 nM; read-out: Percent Control
Sequence of PRKCQ (Q04759 whole entry): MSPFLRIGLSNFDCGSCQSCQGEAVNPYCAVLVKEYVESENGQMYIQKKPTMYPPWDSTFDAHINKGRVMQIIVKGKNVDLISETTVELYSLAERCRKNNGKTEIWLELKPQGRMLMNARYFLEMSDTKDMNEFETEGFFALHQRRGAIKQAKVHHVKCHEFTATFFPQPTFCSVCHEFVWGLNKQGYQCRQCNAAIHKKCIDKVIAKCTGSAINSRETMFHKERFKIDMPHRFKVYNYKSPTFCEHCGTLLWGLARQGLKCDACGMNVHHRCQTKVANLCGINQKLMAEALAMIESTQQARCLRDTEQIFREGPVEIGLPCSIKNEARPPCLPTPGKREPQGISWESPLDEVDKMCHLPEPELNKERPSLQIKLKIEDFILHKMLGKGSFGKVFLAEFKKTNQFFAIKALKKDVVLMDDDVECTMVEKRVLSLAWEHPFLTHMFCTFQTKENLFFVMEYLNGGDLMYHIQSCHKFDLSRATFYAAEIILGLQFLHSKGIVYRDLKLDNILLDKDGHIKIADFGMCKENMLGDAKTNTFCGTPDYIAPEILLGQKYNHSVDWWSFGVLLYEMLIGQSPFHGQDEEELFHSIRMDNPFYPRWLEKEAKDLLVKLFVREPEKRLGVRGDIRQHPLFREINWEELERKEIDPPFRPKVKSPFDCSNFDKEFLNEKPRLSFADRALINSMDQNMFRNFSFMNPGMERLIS

NEK1 = NEK1 (Homo sapiens (Human), UniProt Q96PY6); experiment: KINOMEscan scanMAX; format: binding; settings: 2000 nM; read-out: Percent Control
ABL1-nonphosphorylated = ABL1-nonphosphorylated (Homo sapiens (Human), UniProt P00519); experiment: KINOMEscan scanMAX; format: binding; settings: 2000 nM; read-out: Percent Control

Sequence of RSK3(Kin.Dom.2-C-terminal) (RPS6KA2) (Q15349 415-672): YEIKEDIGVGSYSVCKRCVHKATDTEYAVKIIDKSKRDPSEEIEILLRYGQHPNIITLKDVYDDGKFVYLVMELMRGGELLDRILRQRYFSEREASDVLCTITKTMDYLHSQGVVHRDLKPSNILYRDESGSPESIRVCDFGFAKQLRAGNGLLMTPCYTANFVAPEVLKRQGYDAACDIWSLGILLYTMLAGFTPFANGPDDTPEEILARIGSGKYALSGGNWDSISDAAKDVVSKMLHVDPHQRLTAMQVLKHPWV

Work on CN1CCN(C(=O)c2ccc3cc(CCNc4ccnc5ccc(C#N)cc45)ccc3c2)CC1 [compound 6148, 4-((2-(6-(4-methylpiperazine-1-carbonyl)naphthalen-2-yl)ethyl)amino)quinoline-6-carbonitrile] yielded a remaining binding at 2 µM (AKT1) of 89%, a remaining binding at 2 µM [1] of 91% and a remaining binding at 2 µM (EGFR) of 91%. For the same compound, the remaining binding at 2 µM (CAMK2A) was 100%, the remaining binding at 2 µM (ALK) was 89% and the remaining binding at 2 µM (ULK1) was 66%. It also gave a Kd (CDK8) of 55 nM, a remaining binding at 2 µM [2] of 56% and a remaining binding at 2 µM (PCTK3 (CDK18)) of 97%. The remaining binding at 2 µM (LYN) was 88%, the remaining binding at 2 µM (IRAK4) was 67% and the remaining binding at 2 µM (PIK3CA(H1047L)) was 84%. It also gave a remaining binding at 2 µM (MET(Y1235D)) of 78%, a remaining binding at 2 µM (BMPR2) of 66% and a remaining binding at 2 µM (CSNK2A2) of 64%. It also gave a remaining binding at 2 µM (CSK) of 85%, a remaining binding at 2 µM (CDK4-cyclinD3) of 80% and a remaining binding at 2 µM (VRK2) of 58%. The remaining binding at 2 µM (GAK) was 100%, the remaining binding at 2 µM (SRC) was 92% and the remaining binding at 2 µM (JNK2 (MAPK9)) was 67%. For the same compound, the remaining binding at 2 µM (TNK2) was 94%, the remaining binding at 2 µM (ADCK4) was 97% and the “Time effects largely retained after wash-off” value (CDK8/19) was “at least 6 hrs”. It also gave a remaining binding at 2 µM (MYLK2) of 91%, a remaining binding at 2 µM (RIPK5 (DSTYK)) of 69% and a remaining binding at 2 µM (RIPK1) of 100%. For the same compound, the Kd (CDK19) was 44 nM, the remaining binding at 2 µM (ULK2) was 71% and the remaining binding at 2 µM (IRAK3) was 94%. It also gave a remaining binding at 2 µM (LTK) of 93%, a remaining binding at 2 µM (MLCK (MYLK3)) of 100% and a remaining binding at 2 µM (NEK5) of 97%. It also gave a remaining binding at 2 µM (BTK) of 78%, a remaining binding at 2 µM (MEK6 (MAP2K6)) of 80% and a remaining binding at 2 µM (BMPR1B) of 70%. For the same compound, the remaining binding at 2 µM (PRKCQ) was 100%, the remaining binding at 2 µM (NEK1) was 84% and the remaining binding at 2 µM (ABL1-nonphosphorylated) was 71%.

— patent US12281080B2, “Quinoline-based compounds and methods of inhibiting CDK8/19” (University of South Carolina, priority 2018, dated 2025)
